Measurements taken from ChEMBL document CHEMBL1201862, “PubChem BioAssay data set” (2004).
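All cell lines were grown in 96-well plates and treated with compound for 48 hours. GI50 is the concentration that inhibits growth by half.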 The source made the active and inactive calls. No stated cut-off is given here; in the data, active = GI50 up to about 1.1 µM and inactive = higher.

Experiments:
Experiment in all cases: DTP human tumour cell line panel, 48 h
NCI-H226 = system: NCI-H226
SF-295 = system: SF-295
HOP-62 = system: HOP-62
SW-620 = system: SW-620
HL-60 = system: HL-60
SK-OV-3 = system: SK-OV-3
CAKI-1 = system: CAKI-1
SF-268 = system: SF-268
UACC-62 = system: UACC-62
NCI-H522 = system: NCI-H522
HT-29 = system: HT-29
IGROV-1 = system: IGROV-1
OVCAR-8 = system: OVCAR-8
Malme-3M = system: Malme-3M
PC-3 = system: PC-3
M14 = system: M14
SK-MEL-2 = system: SK-MEL-2
RPMI-8226 = system: RPMI-8226
NCI-H460 = system: NCI-H460
HCC 2998 = system: HCC 2998

SMILES	GI50 (NCI-H226)	GI50 (SF-295)	GI50 (HOP-62)	GI50 (SW-620)	GI50 (HL-60)	GI50 (SK-OV-3)	GI50 (CAKI-1)	GI50 (SF-268)	GI50 (UACC-62)	GI50 (NCI-H522)	GI50 (HT-29)	GI50 (IGROV-1)	GI50 (OVCAR-8)	GI50 (Malme-3M)	GI50 (PC-3)	GI50 (M14)	GI50 (SK-MEL-2)	GI50 (RPMI-8226)	GI50 (NCI-H460)	GI50 (HCC 2998)
CC(C)(C)C1CCC2c3c([nH]c4ccccc34)C3C(=O)N(c4ccc5c(c4)C(=O)c4ccccc4C5=O)C(=O)C3C2C1 (stereo not given)	> 100 µM (inactive)	> 100 µM (inactive)	> 100 µM (inactive)	> 100 µM (inactive)	> 100 µM (inactive)	> 100 µM (inactive)	> 100 µM (inactive)	> 100 µM (inactive)	> 100 µM (inactive)	> 100 µM (inactive)	> 100 µM (inactive)	> 100 µM (inactive)	> 100 µM (inactive)	> 100 µM (inactive)	> 100 µM (inactive)	> 100 µM (inactive)	> 100 µM (inactive)	> 100 µM (inactive)	> 100 µM (inactive)	> 100 µM (inactive)
CCCCCCOc1ccc(C(=O)NO)cc1	9.46 µM (inactive)	8.26 µM (inactive)	11.8 µM (inactive)	5.02 µM (inactive)	1.81 µM (inactive)	10.5 µM (inactive)	4.44 µM (inactive)	5.64 µM (inactive)	6.82 µM (inactive)	3.14 µM (inactive)	7.57 µM (inactive)	3.61 µM (inactive)	5.08 µM (inactive)	11.3 µM (inactive)	9.51 µM (inactive)	11.9 µM (inactive)	12.4 µM (inactive)	2.82 µM (inactive)	4.68 µM (inactive)	9.25 µM (inactive)
O=c1[nH]c2nccn2c(Cl)c1Br	35.2 µM (inactive)	> 100 µM (inactive)	> 100 µM (inactive)	26.6 µM (inactive)	17.2 µM (inactive)	29.6 µM (inactive)	22.4 µM (inactive)	23.2 µM (inactive)	19.4 µM (inactive)	14.6 µM (inactive)	23.3 µM (inactive)	20.3 µM (inactive)	19.2 µM (inactive)	20 µM (inactive)	50.2 µM (inactive)	16.8 µM (inactive)	2.52 µM (inactive)	54.3 µM (inactive)	24.7 µM (inactive)	21.1 µM (inactive)
C/C=C(/C)C(=O)O[C@H]1[C@H](O)CC(c2ccc3c(c2O)C(=O)C2=C(O)C4(OC)C(=O)C(C(N)=O)=C(O)[C@H](CC(=O)c5ccccc5O)C4CC2[C@@]3(C)OC)O[C@@H]1C (stereo not given in full)	0.0202 µM (active)	0.017 µM (active)	0.00331 µM (active)	0.00408 µM (active)	0.0248 µM (active)	0.00446 µM (active)	0.0124 µM (active)	0.0057 µM (active)	0.01 µM (active)	0.00557 µM (active)	0.00246 µM (active)	0.00577 µM (active)	0.00475 µM (active)	0.0182 µM (active)	0.00637 µM (active)	0.0213 µM (active)	0.00621 µM (active)	0.00785 µM (active)	0.00178 µM (active)	0.0326 µM (active)
CC(C)C(=O)/C=C/c1ccc(Cl)cc1Cl	13.2 µM (inactive)	16.9 µM (inactive)	18.5 µM (inactive)	3.1 µM (inactive)	7.05 µM (inactive)	19.6 µM (inactive)	12.2 µM (inactive)	6.93 µM (inactive)	13 µM (inactive)	10.8 µM (inactive)	3.99 µM (inactive)	14.8 µM (inactive)	10.5 µM (inactive)	14.8 µM (inactive)	18.7 µM (inactive)	8.28 µM (inactive)	14.2 µM (inactive)	> 100 µM (inactive)	11.3 µM (inactive)	16.4 µM (inactive)
CCCCCCCCCCCCCCCCCCOC(COP(=O)(O)OCC1OC(n2cc(F)c(=O)[nH]c2=O)CC1O)COP(=O)(O)OCC1OC(n2ccc(N)nc2=O)C(O)C1O (stereo not given)	> 87.1 µM (inactive)	2.58 µM (inactive)	1.95 µM (inactive)	60.7 µM (inactive)	3.66 µM (inactive)	> 71.3 µM (inactive)	13.2 µM (inactive)	0.536 µM (active)	2.56 µM (inactive)	> 40.2 µM (inactive)	18.2 µM (inactive)	13.6 µM (inactive)	4.51 µM (inactive)	> 68.9 µM (inactive)	15.6 µM (inactive)	6.34 µM (inactive)	> 67 µM (inactive)	10.9 µM (inactive)	0.159 µM (active)	0.419 µM (active)
O=c1c2cc([N+](=O)[O-])ccc2n2n1Cc1ccccc1CC2	> 100 µM (inactive)	> 100 µM (inactive)	> 100 µM (inactive)	> 100 µM (inactive)	> 100 µM (inactive)	> 100 µM (inactive)	> 100 µM (inactive)	> 100 µM (inactive)	> 100 µM (inactive)	> 100 µM (inactive)	> 100 µM (inactive)	> 100 µM (inactive)	> 100 µM (inactive)	> 100 µM (inactive)	> 100 µM (inactive)	> 100 µM (inactive)	> 100 µM (inactive)	> 100 µM (inactive)	> 100 µM (inactive)	> 100 µM (inactive)
CC(NC(=O)/C(=C/c1ccccc1)NC(=O)c1ccccc1)C(=O)O (stereo not given)	26.1 µM (inactive)	96.4 µM (inactive)	> 100 µM (inactive)	> 100 µM (inactive)	77.1 µM (inactive)	87.3 µM (inactive)	29.7 µM (inactive)	> 100 µM (inactive)	57 µM (inactive)	> 100 µM (inactive)	> 100 µM (inactive)	21.3 µM (inactive)	50 µM (inactive)	> 100 µM (inactive)	> 100 µM (inactive)	> 100 µM (inactive)	> 100 µM (inactive)	> 100 µM (inactive)	> 100 µM (inactive)	> 100 µM (inactive)
O=C(O)c1ccccc1C1CCCc2c1[nH]c1ccccc21 (stereo not given)	> 100 µM (inactive)	57 µM (inactive)	> 100 µM (inactive)	57.1 µM (inactive)	33.2 µM (inactive)	> 100 µM (inactive)	72.6 µM (inactive)	66.1 µM (inactive)	53.2 µM (inactive)	47.9 µM (inactive)	61.4 µM (inactive)	31.5 µM (inactive)	75.7 µM (inactive)	98.9 µM (inactive)	46.9 µM (inactive)	53.5 µM (inactive)	91.6 µM (inactive)	28.8 µM (inactive)	69.7 µM (inactive)	> 100 µM (inactive)
C/C(=N\NC(=S)N1CCCCC1)c1cccc(C)n1	< 0.01 µM (active)	0.056 µM (active)	< 0.01 µM (active)	< 0.01 µM (active)	< 0.01 µM (active)	< 0.0146 µM (active)	< 0.01 µM (active)	< 0.0103 µM (active)	0.0318 µM (active)	< 0.01 µM (active)	< 0.01 µM (active)	< 0.01 µM (active)	< 0.01 µM (active)	< 0.0197 µM (active)	< 0.01 µM (active)	0.0141 µM (active)	0.515 µM (active)	< 0.01 µM (active)	< 0.0136 µM (active)	0.082 µM (active)
